Test results reported in ChEMBL document CHEMBL1201862, “PubChem BioAssay data set” (2004).
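Five concentrations, 48 hours, 96-well plates. The concentration for 50% growth inhibition is given as GI50.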 Calls of active or inactive are those of the source. Cut-off read from the data, not from the text of the source: active = GI50 up to about 1.1 µM and inactive = higher.

Key:
Assay in all cases: NCI tumour cell line growth inhibition, 48 h
DU-145 = system: DU-145
MDA-MB-435 = system: MDA-MB-435
PC-3 = system: PC-3
MDA-N = system: MDA-N
Hs-578T = system: Hs-578T
T47D = system: T47D
786-0 = system: 786-0
MDA-MB-231 = system: MDA-MB-231
RXF 631 = system: RXF 631

Measured: GI50

COC(=O)C#Cc1cccc(OC)c1OC
inactive: DU-145 88.1 µM | MDA-MB-435 33.7 µM | PC-3 36.7 µM | MDA-N 40.7 µM | Hs-578T 37.3 µM | T47D > 100 µM | 786-0 43.8 µM | MDA-MB-231 62.8 µM

CCOC(=O)c1csc(NC(=O)CCN(CC)CC)n1
inactive: DU-145 40.2 µM | MDA-MB-435 38.3 µM | PC-3 41 µM | MDA-N 45.5 µM | T47D 54.7 µM | MDA-MB-231 50.5 µM

COc1ccc(OC)c(NC(=O)C(=O)C(C(=O)c2ccccc2F)C2OC(=O)c3ccccc32)c1 (stereo not drawn)
inactive: RXF 631 34.7 µM

COc1nc(Cl)c(Cl)c(Cl)n1.COc1nc(Cl)nc(Cl)c1Cl
inactive: DU-145 2.35 µM | MDA-MB-435 2.97 µM | PC-3 2.66 µM | Hs-578T 3.91 µM | T47D 2.29 µM | 786-0 14.2 µM | MDA-MB-231 17.2 µM

CCOC(=O)C(NC(=O)CC)(Nc1ccccc1OC)C(F)(F)F (stereo not drawn)
inactive: DU-145 > 100 µM | MDA-MB-435 > 100 µM | PC-3 > 100 µM | MDA-N > 100 µM | Hs-578T > 100 µM | T47D > 100 µM | MDA-MB-231 > 100 µM

O=C(O[C@@H](/C=C/c1ccccc1)P1(=O)N(Cc2ccccc2)[C@H]2CCCC[C@@H]2N1Cc1ccccc1)c1ccccc1
inactive: DU-145 6.21 µM | MDA-MB-435 3.21 µM | PC-3 2.43 µM | MDA-N 4.22 µM | Hs-578T 13.6 µM | T47D 2.44 µM | 786-0 4.32 µM | MDA-MB-231 2.29 µM

CC1(C)C(O)C[C@@H](O)[C@@]2(C)C1CC[C@]1(C)C2C[C@@H](O)[C@@H]2C([C@@]3(C)CC[C@@H](C(C)(C)O)O3)CCC21C (stereo partly drawn)
inactive: 786-0 15.3 µM
